# Measurements published in patent publication US7186722B2, “2-heteroaryl-3,4-dihydro-2h-pyrrole derivatives and the use thereof as pesticides” (Bayer Cropscience AG, priority 2001, dated 2007).
# Key:
# Assay type in all cases: in vivo
# [1] = test system: peach aphid (Myzus persicae); test: Myzus Test; conditions: 1000 ppm, cabbage leaves dipped
# Protocol: • Solvent: 7 parts by weight of dimethylformamide • Emulsifier: 1 part by weight of alkylaryl polyglycol ether
# (§1) To produce a suitable preparation of active compound, 1 part by weight of active compound is mixed with the stated amounts of solvent and emulsifier, and the concentrate is diluted with emulsifier-containing water to the desired concentration.
# Cabbage leaves (Brassica oleracea) which are heavily infested by the peach aphid (Myzus persicae) are treated by being dipped into the preparation of active compound of the desired concentration.
# After the desired period of time, the kill in % is determined. 100% means that all aphids have been killed; 0% means that none of the aphids have been killed.
# [2] = test system: caterpillars of the diamond back moth (Plutella xylostella); test: Plutella Test; conditions: 8 ppm, cabbage leaves dipped
# Protocol: (§2) • Solvent: 30 parts by weight of dimethylformamide • Emulsifier: 1 part by weight of alkylaryl polyglycol ether
# as §1
# Cabbage leaves (Brassica oleracea) are treated by being dipped into the preparation of active compound of the desired concentration and are populated with caterpillars of the diamond back moth (Plutella xylostella) while the leaves are still moist.
# After the desired period of time, the kill in % is determined. 100% means that all caterpillars have been killed; 0% means that none of the caterpillars have been killed.
# [3] = test system: greenhouse red spider mite (Tetranychus urticae); test: Tetranychus Test (OP-resistent/dip treatment); conditions: 500 ppm, bean plants dipped, OP-resistent
# Protocol: Tetranychus Test (OP-Resistent/Dip Treatment)
# as §2, §1
# Bean plants (Phaseolus vulgaris) which are heavily infested by all stages of the greenhouse red spider mite (Tetranychus urticae) are dipped into a preparation of active compound of the desired concentration.
# After the desired period of time, the effect in % is determined. 100% means that all spider mites have been killed; 0% means that none of the spider mites have been killed.
smiles,measurement,setting,value
Fc1cccc(F)c1C1=NC(c2cc3ccccc3s2)CC1 (stereo not drawn) [drawing 86],Kill rate in % after 6 d,[1],95%
Fc1cccc(F)c1C1=NC(c2ccc(-c3ccc(OC(F)(F)F)cc3)s2)CC1 (stereo not drawn) [drawing 90],Kill rate in % after 6 d,[2],90%
Fc1cccc(F)c1C1=NC(c2cc3sc(-c4ccc(OC(F)(F)F)cc4)cc3s2)CC1 (stereo not drawn) [drawing 97],Kill rate in % after 7 d,[3],80%
